{
  "source": "paper PMC6268181",
  "about": "“Synthesis of Novel IP Agonists via N-Aminoethyl Cyclic Amines Prepared by Decarboxylative Ring-Opening Reactions” (Molecules, 2012)",
  "molecular_target": "T1, human IP receptor (PGI2 receptor) (Homo sapiens, UniProt P43119)",
  "T1 construct": "gene PTGIR",
  "T1 sequence (P43119 1-383)": "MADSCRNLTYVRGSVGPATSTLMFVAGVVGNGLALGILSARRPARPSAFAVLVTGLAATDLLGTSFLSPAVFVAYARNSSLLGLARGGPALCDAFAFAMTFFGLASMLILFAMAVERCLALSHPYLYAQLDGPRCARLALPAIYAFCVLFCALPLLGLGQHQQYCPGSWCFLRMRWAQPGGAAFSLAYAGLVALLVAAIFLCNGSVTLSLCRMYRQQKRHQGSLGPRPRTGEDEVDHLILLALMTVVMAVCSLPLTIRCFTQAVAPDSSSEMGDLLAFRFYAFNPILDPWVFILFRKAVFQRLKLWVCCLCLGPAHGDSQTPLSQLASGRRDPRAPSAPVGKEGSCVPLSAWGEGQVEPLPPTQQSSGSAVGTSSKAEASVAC",
  "experiment": "competitive binding assay with membrane fractions of CHO or COS-7 cells expressing the receptor; also cAMP increase in COS-7 cells expressing human IP",
  "note": "Where a name gives a salt, the structure may show the parent alone.",
  "data": [
    {"compound": "O=C(O)COC1CCN(CCN(C(=O)c2ccc3c(c2)OCO3)c2ccc(Cl)cc2)CC1", "note": "[compound 2, 2-((1-(2-(N-(4-Chlorophenyl)benzo[d][1,3]dioxole-5-carboxamido)ethyl)piperidin-4-yl)oxy)acetic acid phosphoric acid salt]", "values": [
      {"measurement": "Ki", "value": 310, "unit": "nM"}
    ]}
  ]
}
